# Assay results: patent publication US12121565B2, “Methods of treatment of specific cancers with NLRP3 inhibitors and anti-PD1/PD-L1 antibodies” (Duke University, priority 2019, dated 2024)
# Legend:
# [1] = tested on: syngeneic BRAFV600E PTEN−/− melanomas; experiment: Syngeneic transplant tumor study: tumor growth, flow cytometry, Western blot, ELISA, qRT-PCR; format: in vivo, mouse
# Procedure: B6.Cg-Braf^tm1MmcmPten^tm1Hwu Tg(Tyr-cre/ERT2 H-2^b)13Bos/BosJ transgenic mice were subdermally injected with 4-Hydroxytomoxifen (4-HT) (Sigma, H6278-50MG CCF, 38.75 μg/mouse) to induce primary melanoma development at the base of the tail. Mice were randomly assigned to treatment cohorts once tumor volumes reached 64 mm^3 (19, 30, 50). Depending on the experiment, mice were treated with the following agents: CXCR2 inhibitor (AZD5069, AstraZeneca) at 100 mg/kg per os (po) twice daily, NLRP3 inhibitor (MCC950) 10 mg/kg i.p every other day, anti-PD1 ab (BioXCell) or rat IgG2a isotype control (BioXCell) at 200 μg by i.p. injection every 3 days, Dacarbazine (50 mg/kg or 75 mg/kg, Sigma-Aldrich, D2390) by i.p. injection once every other day. Melanoma growth was monitored by orthogonal caliper measurements every 3 days.
# Braf^V600EPten^−/−, Braf^V600EPten^−/−-NTC, Braf^V600EPten^−/−-Wnt5a^KD, Braf^V600EPten^−/−-CXCL5^KD, Braf^V600EPten^−/−-PDL1^KD, and Braf^V600EPten^−/−-NLRP3^KD cell lines (0.5×10^5-1×10^5 cells) were implanted by subcutaneous injection into the base of the tail of syngeneic C57BL/6 mice. Tumor growth was monitored by caliper measurement every 3 days and treatment was initiated when tumor volumes reached 64 mm^3. Tumor volume was calculated according to the formula: cm^3=[(length (cm)×(width (cm))^2]/2.
# One million cells were stained with 1 μg per million cells of each fluorochrome conjugated antibodies or commercially available dyes according to the standard protocols and analyzed using a FACSCanto II or LSRII (Becton Dickinson). Cells were stained with Fc receptor blocking antibodies followed by a live/dead discriminator (CellTrace Violet, ThermoFisher, C34571), then by conjugated antibodies for 30 min at 4° C. Cell number was calculated by hemocytometer. Flow cytometry data was analyzed using Flowjo software v10.3.
# Tumor tissue or cells were homogenized in NP40 lysis buffer (Sigma-Aldrich) supplemented with complete protease inhibitor and phosphatase inhibitor (Roche). Cells were lysed in Laemmli sample buffer after treatment and subjected to SDS-polyacrylamide gel electrophoresis. After transferring onto PVDF membranes (Bio-Rad), monoclonal and polyclonal primary antibodies and appropriate HRP-conjugated secondary antibodies were utilized for blotting. For the immunoprecipitation assays, cells were lysed with TBS buffer (50 mM Tris-HCl (pH 7.4), 150 mM NaCl) containing 0.5% Triton X-100, EDTA-free protease inhibitor cocktail and phosphatase inhibitor cocktail, precleared with protein A/G beads, and then incubated with 1 μg of appropriate antibodies or isotype control IgG on a rotator overnight at 4° C. then incubated with protein A/G-agarose at 4° C. for 1 hour. After 5 washes with TBS buffer, immunoprecipitated complexes were eluted in sample buffer by boiling and subjected to immunoblot analysis. Immunoblots were visualized by chemiluminescence substrate (ThermoFisher) and imaged by a ChemiDoc XRSplus system (BioRad). For the ASC polymerization assay, cells were lysed with TBS buffer containing 0.5% Triton X-100, EDTA-free protease inhibitor cocktail and phosphatase inhibitor cocktail. The lysates were centrifuged at 4,000 g at 4° C. for 15 min. For the detection of ASC oligomerization, the Triton-insoluble pellets were washed twice with TBS buffer and then resuspended in 500 μl TBS buffer. The resuspended pellets were crosslinked for 30 min at room temperature with 2 mM Disuccinimidyl suberate (DSS) (Thermo Fisher Scientific, 21655) and then centrifuged for 15 min at 6,000 g. The pellets were dissolved in SDS sample buffer.
# Total RNA was isolated by RNeasy Plus Mini Kit (Qiagen, 74134). RNA (1000 ng) was used in cDNA Synthesis (iScript Reverse Transcription Supermix, BioRad, 1708841). Data analysis utilized the PrimePCR Analysis Software (BioRad). […]
# [2] = tested on: BRAFV600EPTEN−/− melanoma cells; experiment: MTT cell proliferation assay in culture; format: cell-based, mouse; settings: NLRP3 inhibitor (MCC950) in culture
# From the text: FIG. 14A-H. (A) NLRP3 Western blot analysis of NTC and NLRP3KD BRAFV600EPTEN−/− melanoma cells. (B) Representative dot plots of PMN-MDSC and CD8+ T cell flow cytometry analysis of resected BRAFV600EPTEN^−/−-NTC and BRAFV600EPTEN^−/−-NLRP3KD stable cell lines. Representative of 2 independent experiments. (C) Top, MTT cell proliferation assay of BRAFV600EPTEN^−/−-NTC, BRAFV600EPTEN−/−-NLRP3KD, BRAFV600EPTEN^−/−-PDL1KD stable cell lines in culture. ns, non-significant. Bottom, MTT cell proliferation assay of BRAFV600EPTEN−/−melanoma cells following treatment with NLRP3 inhibitor (MCC950) in culture. Each performed in triplicate. (D) Tumor growth curve of BRAFV600EPTEN^−/−-NLRP3KDmelanomas with CD8+ T cell ablation. Mice treated with anti-CD8 ab ip daily×3 days followed by anti-CD8 ab one week later (gray boxes). BRAFV600EPTEN^−/−-NTC control tumors also included (n=5). (E) Plasma HSP70 ELISA of BRAFV600EPTEN^−/− melanoma-bearing mice following treatment with IgG isotype control ab, anti-PD-1 ab, or anti-PD-1 ab+MCC950 NLRP3 inhibitor (NLRP3i) (n=4/group). NTC, non-targeted control. KD, knockdown. (F) IL-1β qrt-PCR analysis of BRAFV600EPTEN−/− melanoma cells (n=3). Data normalized to TLR9 expression. (G) Above, IL-1β ELISA of BRAFV600EPTEN−/−-melanoma cell line supernatant after IFNγ/anti-PD-L1 ab treatment in vitro (n=3). […]
# [3] = combined anti-PD-1 Ab and NLRP3 inhibitor
smiles,measurement,setting,value
"CC(C)(O)c1coc(S(=O)(=O)NC(=O)Nc2c3c(cc4c2CCC4)CCC3)c1 [MCC950, N-[[(1,2,3,5,6,7-hexahydro-s-indacen-4-yl)amino]carbonyl]-4-(1-hydroxy-1-methylethyl)-2-furansulfonamide]",PMN-MDSC recruitment in response to anti-PD-1 Ab therapy,[1]; NLRP3 inhibition combined with anti-PD-1 Ab (200 μg i.p. every 3 days),diminished
same,levels of tumor-infiltrating CD8+ T cells,[1]; NLRP3 inhibitor MCC950 combined with anti-PD-1 Ab,enhanced
same,tumor progression in vivo,"[1]; NLRP3 inhibitor MCC950 combined with anti-PD-1 Ab, beyond what was observed with anti-PD-1 Ab monotherapy",suppressed
same,HSP70 release (plasma ELISA),[1]; combined anti-PD-1 Ab and NLRP3 inhibition,suppressed
same,Cxcl5 levels (tumor qRT-PCR),[1]; [3],suppressed
same,Wnt5a expression (whole-tissue Western blot),[1]; [3],suppressed
same,caspase-1 cleavage (whole-tissue Western blot),[1]; [3],suppressed
same,expression of the cytolytic T cell marker Gzmb (tumor qRT-PCR),[1]; [3],enhanced
same,impact on tumor cell proliferation in vitro,[2],neither pharmacologic inhibition of NLRP3 nor genetic silencing of Nlrp3 had any impact
